# Data: article PMC7766697, “Toxicological Screening of Four Bioactive Citroflavonoids: In Vitro, In Vivo, and In Silico Approaches” (Molecules, 2020)
# Like-named read-outs stand apart in the source and are kept apart here.
# Assays:
# VERO cells = experiment: MTT-based cytotoxicity assay in VERO cells; type: cell-based, green Monkey; details: 48 h, 125 to 750 µg/mL (QRT effect at 250–750 µg/mL)
# Experimental: (§1) VERO and MDCK cell lines were acquired from American Type Culture Collection (ATCC, Manassas, VA, USA). […] In vitro cytotoxicity assay was performed on Madin-Darby Canine Kidney Epithelial Cells (MDCK) and green Monkey Kidney Cells (VERO) by MTT-based assay. Briefly, cells were seeded in 96-well plates at a density of 2.5 × 10^3 cells/well. […] The absorbance was measured after 45 min using a microplate reader (Multiskan Asent®) at a wavelength of 550 nm. The criteria for categorizing cytotoxicity against MDCK and VERO cells are based on the U.S. National Cancer Institute (NCI). The criteria comprise as follow: […] All results were expressed as mean ± standard error. The results from the in vivo and in vitro experiments were analyzed using software Origin® 8.0. […] The IC50 (half inhibitory concentration) values were calculated in Origin software®, (Northampton, MA, USA) and one-way ANOVA analysis was compared with cisplatin as the control.
# MDCK cells = experiment: MTT-based cytotoxicity assay in MDCK cells; type: cell-based, Canine; details: 48 h, 125 to 750 µg/mL (QRT effect at 250 and 500 µg/mL)
# Experimental: as §1
# Wistar rats [1] = experiment: Acute oral toxicity, OECD Test No. 423 (mortality, signs, LD50, body weight); type: in vivo; details: oral 300 and 2000 mg/kg, test days 2, 3, 9 and 10
# Experimental: Female Wistar rats (250 g b.w.) were used. These animals were obtained from Bioterium from División de Ciencias de la Salud at the Universidad de Quintana Roo. They were maintained under standard environmental conditions (22 ± 3 °C, 12 h/12 h light/dark cycle), and free access to standard rodent diet and water ad libitum. All animal procedures were conducted under our Federal Regulations for Animal Experimentation and Care and were approved by the Institutional Animal Care and Use Committee of the “Universidad Juárez Autónoma de Tabasco” university (Code:2017-001, Approved: October 2017). Rats were acclimatized for 1 week before the start of experimental procedures.
# The half lethal dose (LD50) was estimated using the fixed-dose method described in OECD Guidelines for the Testing of Chemicals (Test No. 423: Acute Oral Toxicity-Class Method; OECD, 2001). […] This method allowed a step-by-step assay according to the chosen dose to begin the experiment. Subsequently, depending on the presence or absence of mortality, the decision to continue within the next step is taken, so fewer experimental animals should be used.
# (§2) Rats used for this experiment were fasted for 8 h and were organized into two groups of three rats for each dose and each flavonoid. Likewise, the control group received isotonic 0.9% sodium chloride solution (dose: 5 mL/kg). All rats were closely observed for toxic symptoms and behavioral changes (sedation, hyperactivity, writhing, pruritus, feeding and drinking habits, general morphological changes, and bite legs) for 30 min and periodically 24 h post-administration. Animals were observed daily (14 days) and mortality rate recorded. A LD50 was estimated according to criteria of OECD guide 423.
# The rats’ body weight in each group was determined and recorded before the treatment initiation and after 14 days. Changes in the body weight at the end of the 14 days were calculated. Once observation time was completed and to detect any adverse effect, blood samples were collected by cardiac puncture after the previous fasting of 8 h. […] In addition, organ weight was determined.
# Wistar rats [2] = type: in vivo; details: rat, in vivo, po
# Experimental: as §2
# The rats’ body weight in each group was determined and recorded before the treatment initiation and after 14 days. Changes in the body weight at the end of the 14 days were calculated. Once observation time was completed and to detect any adverse effect, blood samples were collected by cardiac puncture after the previous fasting of 8 h. For this purpose, rats were anesthetized by intraperitoneally 50 mg/kg sodium pentobarbital. The liver was carefully extracted, rinsed in normal saline, drained on blotting paper, and carefully examined for tissue lesions. In addition, organ weight was determined.
# Rat blood samples were analyzed by a hematology auto-analyzer system (Sysmex XS-1000i®, SYSMEX®, Oak Ridge, TN, USA). The parameters quantified on this stage were: blood count-packed cell volume (PCV), red blood cell (RBC) count, hemoglobin (Hb), platelet count, white blood cell (WBC) count, mean cell hemoglobin concentration (MCHC), mean red cell volume (MCV), mean cell hemoglobin (MCH), prothrombin time (PT), and activated partial thromboplastin time (aPTT).
# Wistar rats [3] = details: rat, in vivo, po
structure (smiles),measurement,setting,value
"O=C1C[C@@H](c2ccc(O)cc2)Oc2cc(O)cc(O)c21 [NARGE, naringenin]",percentage viability / growth of cells,VERO cells,did not change the percentage of growth
same,percentage viability / growth of cells,MDCK cells,did not change the percentage of growth
same,rats' weight vs control,Wistar rats [1],modifies rats’ weight
same,Erythrocytes,Wistar rats [2]; 300 mg/kg,6.98±1.18 106/µL
same,Hb,Wistar rats [2]; 300 mg/kg,12.00 ± 1.81 g/dL
same,Hto,Wistar rats [2]; 300 mg/kg,36.76±5.31%
same,Leukocytes,Wistar rats [2]; 300 mg/kg,5.31±0.74 103/µL
same,MCH,Wistar rats [2]; 300 mg/kg,17.40 ± 0.39 pg
same,MCHC,Wistar rats [2]; 300 mg/kg,32.53 ± 0.49 g/dL
same,MCV,Wistar rats [2]; 300 mg/kg,53.46 ± 1.87 fL
same,Platelets,Wistar rats [2]; 300 mg/kg,726.00±12.26 105/µL
same,RBCDW,Wistar rats [2]; 300 mg/kg,17.80±1.89%
same,APTT,Wistar rats [2]; 2000 mg/kg,26.26 ± 1.85 s
same,Erythrocytes,Wistar rats [2]; 2000 mg/kg,8.03±0.29 106/µL
same,Hb,Wistar rats [2]; 2000 mg/kg,14.23 ± 0.22 g/dL
same,Hto,Wistar rats [2]; 2000 mg/kg,44.63±0.44%
same,Leukocytes,Wistar rats [2]; 2000 mg/kg,5.57±1.20 103/µL
same,MCH,Wistar rats [2]; 2000 mg/kg,18.05 ± 0.39 pg
same,MCHC,Wistar rats [2]; 2000 mg/kg,31.25 ± 0.18 g/dL
same,MCV,Wistar rats [2]; 2000 mg/kg,57.85 ± 1.59 fL
same,PT,Wistar rats [2]; 2000 mg/kg,15.46 ± 0.71 s
same,RBCDW,Wistar rats [2]; 2000 mg/kg,18.93±0.14%
same,ALB (albumin),Wistar rats [3]; 300 mg/kg,3.86 ± 0.10 g/dL
same,ALB/GL Ratio,Wistar rats [3]; 300 mg/kg,1.26 ± 0.08
same,ALT,Wistar rats [3]; 300 mg/kg,39.19 ± 0.77 IU/L
same,AST,Wistar rats [3]; 300 mg/kg,156.06 ± 9.33 IU/L
same,DB (direct bilirubin),Wistar rats [3]; 300 mg/kg,0.013 ± 0.007 mg/dL
same,GL (globulin),Wistar rats [3]; 300 mg/kg,3.11 ± 0.25 g/dL
same,GLU (glucose),Wistar rats [3]; 300 mg/kg,145.29 ± 5.47 mg/dL
same,IB (indirect bilirubin),Wistar rats [3]; 300 mg/kg,0.051 ± 0.007 mg/dL
same,TB (total bilirubin),Wistar rats [3]; 300 mg/kg,0.064 ± 0.005 mg/dL
same,TP (total protein),Wistar rats [3]; 300 mg/kg,6.97 ± 0.30 g/dL
same,ALB (albumin),Wistar rats [3]; 2000 mg/kg,4.74 ± 0.16 g/dL
same,ALB/GL Ratio,Wistar rats [3]; 2000 mg/kg,1.56 ± 0.14
same,ALT,Wistar rats [3]; 2000 mg/kg,57.68 ± 10.97 IU/L
same,AST,Wistar rats [3]; 2000 mg/kg,149.37 ± 7.16 IU/L
same,DB (direct bilirubin),Wistar rats [3]; 2000 mg/kg,0.020 ± 0.001 mg/dL
same,GL (globulin),Wistar rats [3]; 2000 mg/kg,3.08 ± 0.17 g/dL
same,GLU (glucose),Wistar rats [3]; 2000 mg/kg,175.56 ± 6.80 mg/dL
same,IB (indirect bilirubin),Wistar rats [3]; 2000 mg/kg,0.045 ± 0.060 mg/dL
same,TB (total bilirubin),Wistar rats [3]; 2000 mg/kg,0.065 ± 0.007 mg/dL
same,TP (total protein),Wistar rats [3]; 2000 mg/kg,7.82 ± 0.07 g/dL
